Measured values as given in US11634686B2, “Method of producing naive pluripotent stem cells” (priority 2016, dated 2023).

Experiments:
primed hPSCs = assay: Conversion of hPSCs from primed to naive pluripotency (Nanog+ cells among hNA+ human cells, dome-shaped colonies); type: cell-based; settings: for effect of removal of the component from 2iLI medium on Nanog+ cells and mESC-like colonies: primed H9 after Torin1 3 hr, 5 days culture on MEF
Method: Primed hPSCs were treated with 10 μM ROCK inhibitor Y27632 (Abcam) overnight in hESC medium. After being washed twice in phosphate-buffered saline (PBS), primed hPSCs were cultured in 2iLI medium with 10 μM Torin1 (Tocris) for 3 hours. 2iLI medium contained 50% glucose-free DMEM/F12 (Life Technologies) and 50% glucose-free Neurobasal (Life Technologies), 5 mM glucose, 1 mM glutamine, 1% NEAA, 0.1 mM […], 100 U/ml penicillin, 100 μg/ml streptomycin, 5 mg/mL bovine serum albumin (Sigma) to maintain osmolarity, 20 ng/mL recombinant human LIF (Millipore), […] human insulin (Sigma), 1 μM PD0325901 (PD, EMD Millipore), and 3 μM CHIR99021 (CH, Stemgent). For N004 iPSCs, 2iLI medium with 0.8 μM CHIR99021 was used instead. Then hPSCs were trypsinized into single cells using TrypLE (Life Technologies) for 5 min at 37° C. The single cells were plated on MEF feeders (5-6×10^4/cm^2) in 2iLI medium (without Torin1), which was changed daily. Small, bright, dome-shaped colonies appeared in 4-5 days and were picked manually at day 5-7 for dissociation by TrypLE into single cells, which were plated on fresh MEF cells. After several manual passages, mouse ESC-like colonies were uniformly seen and passaged every 3 days with TrypLE and maintained in 2iLI media (without Torin1). Immunostaining was performed using standard protocol to detect various antigens in cultured cells or frozen tissue sections. Briefly, cells or tissue sections were fixed in 4% paraformaldehyde (Sigma) for 20 min, treated with 0.1% Triton X-100 for 15 min at room temperature for permeabilization, blocked in 3% BSA for 1 hour at room temperature, and then incubated with the indicated primary antibodies (Table S1) overnight at 4° C. and secondary antibodies for 1 h at 37° C. Secondary antibodies were AlexaFluor 488, 594, and 647 (1:1,000, Thermo fisher Scientific). Alkaline phosphatase (AP) staining was performed using the Alkaline Phosphatase Kit (Millipore). Diaminobenzidine (DAB) staining was also used to detect GFP expression in frozen embryo sections according to manufacturer's protocol (Vector Laboratories). Briefly, the frozen sections on slides were thawed at room temperature for 5 min. Then the slides were treated with 0.3% H2O2 solution in PBS at room temperature for 10 min to block endogenous peroxidase activity, and then treated with 3% BSA for 45 min for blocking. The sections were incubated with primary antibody (anti-GFP) in 0.1% BSA for 30 min at room temperature, rinsed briefly in PBS 3 times (5 min each), and then incubated with biotinylated secondary antibody for 30 min followed by PBS rinsing for 3 times (5 min each). The sections were incubated with VECTASTAIN ABC reagent (Vector Laboratories) for 30 min, washed with PBS for 5 min. The sections were incubated with 100 μl peroxidase substrate solution (Sigma, D4293) on the slide under microscope until desired staining intensity and then washed with PBS to remove the substrate solution. For live imaging of mitochondria, primed or naive hPSCs were incubated in prewarmed hESC medium (for primed hPSCs) or 2iLI medium (for naive hPSCs) containing 50 nM MitoTracker Green FM or 100 nM TMRE (Life Technologies) for 15 min at 37° C. Then the staining medium was replaced with the corresponding prewarmed medium without dyes. Cells were then imaged on a Leica DMI6000B fluorescence microscope. Quantification of LC3II puncta was performed using NIH ImageJ with the AUTOCOUNTER pluggin, which calculates the percentage of cell area covered by LC3II puncta.

primed H9 hESCs = assay: Autophagy by costaining for LC3 and Lamp1 (LC3II puncta); type: cell-based, human
Method: (§1) Immunostaining was performed using standard protocol to detect various antigens in cultured cells or frozen tissue sections. Briefly, cells or tissue sections were fixed in 4% paraformaldehyde (Sigma) for 20 min, treated with 0.1% Triton X-100 for 15 min at room temperature for permeabilization, blocked in 3% BSA for 1 hour at room temperature, and then incubated with the indicated primary antibodies (Table S1) overnight at 4° C. and secondary antibodies for 1 h at 37° C. Secondary antibodies were AlexaFluor 488, 594, and 647 (1:1,000, Thermo fisher Scientific). Alkaline phosphatase (AP) staining was performed using the Alkaline Phosphatase Kit (Millipore). Diaminobenzidine (DAB) staining was also used to detect GFP expression in frozen embryo sections according to manufacturer's protocol (Vector Laboratories). Briefly, the frozen sections on slides were thawed at room temperature for 5 min. Then the slides were treated with 0.3% H2O2 solution in PBS at room temperature for 10 min to block endogenous peroxidase activity, and then treated with 3% BSA for 45 min for blocking. […] Cells were then imaged on a Leica DMI6000B fluorescence microscope. Quantification of LC3II puncta was performed using NIH ImageJ with the AUTOCOUNTER pluggin, which calculates the percentage of cell area covered by LC3II puncta.

TFE3 = assay: Torin1/rapamycin-induced nuclear translocation of TFE3 (immunostaining); type: cell-based, human; settings: primed H9 hESCs; inhibition of mTor
Method: We named this medium 2iLI.
as §1

## CNC(=O)c1ccccc1Oc1nc(Nc2cc(OC)c(OC)c(OC)c2)ncc1Br [SBI-0206965]
Primed hPSCs; primed H9 treated 3 hr, with 2iLI and Torin1, Nanog+ of hNA+ cells after five days
  effect on primed-to-naive conversion of blocking autophagy: not significantly affected

## human insulin: human insulin, component of 2iLI medium
Primed hPSCs; primed H9, Torin1 10 μM 3 hr, human insulin 18 μg/ml, about 5 days on MEF feeders
  percentage of Nanog+ cells among all human cells (hNA+) on replacing N2 and B27 supplements: much higher percentage of Nanog^+ cells
Primed hPSCs
  effect of removal of the component from 2iLI medium on Nanog+ cells and mESC-like colonies: drastically reduced Nanog^+ cells and mESC-like colonies

## CCC(=O)N1CCN(c2ccc(-n3c(=O)ccc4cnc5ccc(-c6cnc7ccccc7c6)cc5c43)cc2C(F)(F)F)CC1 [Torin1]
Primed hPSCs; transient treatment (10 μM for 3 hr) in 2iLI medium, 5 mM glucose, 5% O2
  conversion of hPSCs from primed to naive pluripotency: converted hPSCs from primed to naive pluripotency
Primed H9 hESCs; 2iLI medium with 5 mM glucose and 10 μM Torin1 for 3 hr
  induction of autophagy, combined treatment: induced autophagy most prominently
Primed H9 hESCs; primed H9 in hESC medium, mTor inhibition for 3 hr
  induction of autophagy: induced autophagy
TFE3
  translocation of TFE3 from cytoplasm to nucleus: induced rapid translocation of TFE3 from cytoplasm to nucleus

## Cc1c[nH]c(-c2cnc(NCCNc3ccc(C#N)cn3)nc2-c2ccc(Cl)cc2Cl)n1 [CHIR99021]
Primed hPSCs; N004 iPSCs, all other conditions as in 2iLI medium, percentage of human cells positive for Nanog
  optimized concentration for conversion of N004 iPSCs to naive state: 0.8 µM
Primed hPSCs
  effect of removal of the component from 2iLI medium on Nanog+ cells and mESC-like colonies: drastically reduced Nanog^+ cells and mESC-like colonies

## O=C(NOC[C@H](O)CO)c1ccc(F)c(F)c1Nc1ccc(I)cc1F [PD, PD0325901]
Primed hPSCs
  effect of removal of the component from 2iLI medium on Nanog+ cells and mESC-like colonies: drastically reduced Nanog^+ cells and mESC-like colonies

## human LIF: recombinant human Leukemia Inhibitory Factor, component of 2iLI medium
Primed hPSCs
  effect of removal of the component from 2iLI medium on Nanog+ cells and mESC-like colonies: drastically reduced Nanog^+ cells and mESC-like colonies
